Tests used:
Assay in all cases: relative viability vs DMSO control (72 h) (fraction); higher = more viable cells
[1] = tested on: SW872
How it was run: (§1)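 A 5 µM positive control and 0.1% DMSO vehicle ran alongside sarcoma cell lines seeded in 384-well plates to reach 80–90% confluence. Serially diluted compound, 2.5 µl from source plates of 10 mM to 0.0002 mM, was added after 24 h, and the plates were held 72 h at 37 °C, 5% CO2. Relative viability was worked out from ATPLite readings as percent growth averaged over up to triplicate wells. The values were rescaled so that 1 is full and 0 is none.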

[2] = tested on: VA-ES-BJ
How it was run: as §1

[3] = tested on: SW1353
How it was run: as §1

[4] = tested on: A204
How it was run: as §1

[5] = tested on: SK-LMS-1
How it was run: as §1

[6] = tested on: G401
How it was run: as §1

[7] = tested on: KHOS-240S
How it was run: as §1

[8] = tested on: RD
How it was run: as §1

[9] = tested on: HS729
How it was run: as §1

[10] = tested on: SW982
How it was run: as §1

[11] = tested on: MES-SA
How it was run: as §1

[12] = tested on: SK-ES-1
How it was run: as §1

CCCCCCCCCCCCCCCCCCOP(=O)([O-])OC1CC[N+](C)(C)CC1 [Perifosine]
Details | relative viability
[1], 0.00017 µM | 1.07
[1], 0.00051 µM | 1.1
[1], 0.00152 µM | 1.05
[1], 0.00457 µM | 1.03
[1], 0.01372 µM | 0.986
[1], 0.04115 µM | 1.05
[1], 0.1235 µM | 1.04
[1], 0.3704 µM | 0.982
[1], 1.111 µM | 0.891
[1], 3.333 µM | 0.629
[1], 10 µM | 0.519
[2], 0.00017 µM | 1.08
[2], 0.00051 µM | 1.09
[2], 0.00152 µM | 1.05
[2], 0.00457 µM | 1.1
[2], 0.01372 µM | 1.07
[2], 0.04115 µM | 1.091
[2], 0.1235 µM | 1.06
[2], 0.3704 µM | 1.05
[2], 1.111 µM | 1.05
[2], 3.333 µM | 1.02
[2], 10 µM | 0.2547
[3], 0.00017 µM | 1.11
[3], 0.00051 µM | 1.1
[3], 0.00152 µM | 1.09
[3], 0.00457 µM | 1.08
[3], 0.01372 µM | 1.04
[3], 0.04115 µM | 1.04
[3], 0.1235 µM | 1.05
[3], 0.3704 µM | 1.07
[3], 1.111 µM | 1.03
[3], 3.333 µM | 1.02
[3], 10 µM | 1.06
[4], 0.00017 µM | 1.05
[4], 0.00051 µM | 1.08
[4], 0.00152 µM | 1.07
[4], 0.00457 µM | 1.07
[4], 0.01372 µM | 1.06
[4], 0.04115 µM | 1.07
[4], 0.1235 µM | 1.08
[4], 0.3704 µM | 1.06
[4], 1.111 µM | 1.03
[4], 3.333 µM | 1.06
[4], 10 µM | 1.08
[5], 0.00017 µM | 1.01
[5], 0.00051 µM | 1.05
[5], 0.00152 µM | 1.02
[5], 0.00457 µM | 1.06
[5], 0.01372 µM | 1.01
[5], 0.04115 µM | 0.994
[5], 0.1235 µM | 1.02
[5], 0.3704 µM | 1.01
[5], 1.111 µM | 0.848
[5], 3.333 µM | 0.836
[5], 10 µM | 0.68
[6], 0.00017 µM | 1.057
[6], 0.00051 µM | 1.06
[6], 0.00152 µM | 1.07
[6], 0.00457 µM | 1.07
[6], 0.01372 µM | 1.06
[6], 0.04115 µM | 1.059
[6], 0.1235 µM | 1.064
[6], 0.3704 µM | 1.06
[6], 1.111 µM | 1.05
[6], 3.333 µM | 1.03
[6], 10 µM | 1.06
[7], 0.00017 µM | 1.09
[7], 0.00051 µM | 1.1
[7], 0.00152 µM | 1.11
[7], 0.00457 µM | 1.1
[7], 0.01372 µM | 1.1
[7], 0.04115 µM | 1.09
[7], 0.1235 µM | 1.09
[7], 0.3704 µM | 1.08
[7], 1.111 µM | 1.09
[7], 3.333 µM | 1.04
[7], 10 µM | 0.818
[8], 0.00017 µM | 1.05
[8], 0.00051 µM | 1.07
[8], 0.00152 µM | 1.09
[8], 0.00457 µM | 1.11
[8], 0.01372 µM | 1.07
[8], 0.04115 µM | 1.07
[8], 0.1235 µM | 1.1
[8], 0.3704 µM | 1.07
[8], 1.111 µM | 1.08
[8], 3.333 µM | 1.09
[8], 10 µM | 0.997
[9], 0.00017 µM | 1.06
[9], 0.00051 µM | 0.9606
[9], 0.00152 µM | 1.01
[9], 0.00457 µM | 1.02
[9], 0.01372 µM | 0.924
[9], 0.04115 µM | 0.931
[9], 0.1235 µM | 0.987
[9], 0.3704 µM | 0.909
[9], 1.111 µM | 0.902
[9], 3.333 µM | 0.904
[9], 10 µM | 0.913
[10], 0.00017 µM | 1.02
[10], 0.00051 µM | 1.04
[10], 0.00152 µM | 1.06
[10], 0.00457 µM | 1.08
[10], 0.01372 µM | 1.1
[10], 0.04115 µM | 1.08
[10], 0.1235 µM | 1.1
[10], 0.3704 µM | 1.08
[10], 1.111 µM | 1.06
[10], 3.333 µM | 1.06
[10], 10 µM | 0.88
[11], 0.00017 µM | 0.987
[11], 0.00051 µM | 0.982
[11], 0.00152 µM | 0.998
[11], 0.00457 µM | 0.974
[11], 0.01372 µM | 0.96
[11], 0.04115 µM | 0.922
[11], 0.1235 µM | 0.953
[11], 0.3704 µM | 0.936
[11], 1.111 µM | 0.855
[11], 3.333 µM | 0.918
[11], 10 µM | 0.781
[12], 0.00017 µM | 1.08
[12], 0.00051 µM | 1.06
[12], 0.00152 µM | 1.07
[12], 0.00457 µM | 1.02
[12], 0.01372 µM | 0.975
[12], 0.04115 µM | 0.951
[12], 0.1235 µM | 1.05
[12], 0.3704 µM | 0.996
[12], 1.111 µM | 1.05
[12], 3.333 µM | 1.02
[12], 10 µM | 1.01

FC(F)(F)c1ccc(CNc2ccc(Cc3c[nH]c4ncc(Cl)cc34)cn2)cn1 [Pexidartinib]
Details | relative viability
[1], 0.00017 µM | 1.12
[1], 0.00051 µM | 1.13
[1], 0.00152 µM | 1.1
[1], 0.00457 µM | 1.08
[1], 0.01372 µM | 1.05
[1], 0.04115 µM | 1.06
[1], 0.1235 µM | 1.05
[1], 0.3704 µM | 1.03
[1], 1.111 µM | 1.01
[1], 3.333 µM | 0.999
[1], 10 µM | 0.974
[2], 0.00017 µM | 1.07
[2], 0.00051 µM | 1.068
[2], 0.00152 µM | 1.07
[2], 0.00457 µM | 1.06
[2], 0.01372 µM | 1.05
[2], 0.04115 µM | 1.04
[2], 0.1235 µM | 1.06
[2], 0.3704 µM | 1.04
[2], 1.111 µM | 1.03
[2], 3.333 µM | 1.03
[2], 10 µM | 1.05
[3], 0.00017 µM | 1.07
[3], 0.00051 µM | 1.03
[3], 0.00152 µM | 0.993
[3], 0.00457 µM | 1.02
[3], 0.01372 µM | 0.988
[3], 0.04115 µM | 1.01
[3], 0.1235 µM | 1
[3], 0.3704 µM | 0.975
[3], 1.111 µM | 0.897
[3], 3.333 µM | 0.896
[3], 10 µM | 0.85
[4], 0.00017 µM | 1.14
[4], 0.00051 µM | 1.14
[4], 0.00152 µM | 1.09
[4], 0.00457 µM | 1.08
[4], 0.01372 µM | 1.07
[4], 0.04115 µM | 1.08
[4], 0.1235 µM | 1.05
[4], 0.3704 µM | 0.898
[4], 1.111 µM | 0.576
[4], 3.333 µM | 0.463
[4], 10 µM | 0.393
[5], 0.00017 µM | 1.03
[5], 0.00051 µM | 1.06
[5], 0.00152 µM | 1.05
[5], 0.00457 µM | 1.04
[5], 0.01372 µM | 1.03
[5], 0.04115 µM | 1.03
[5], 0.1235 µM | 1.05
[5], 0.3704 µM | 1.02
[5], 1.111 µM | 0.995
[5], 3.333 µM | 1
[5], 10 µM | 0.864
[6], 0.00017 µM | 1.03
[6], 0.00051 µM | 1.036
[6], 0.00152 µM | 1.03
[6], 0.00457 µM | 1.05
[6], 0.01372 µM | 1.02
[6], 0.04115 µM | 1
[6], 0.1235 µM | 0.685
[6], 0.3704 µM | 0.9956
[6], 1.111 µM | 0.9873
[6], 3.333 µM | 0.95
[6], 10 µM | 0.8332
[7], 0.00017 µM | 1.09
[7], 0.00051 µM | 1.07
[7], 0.00152 µM | 1.07
[7], 0.00457 µM | 1.08
[7], 0.01372 µM | 1.08
[7], 0.04115 µM | 1.08
[7], 0.1235 µM | 1.1
[7], 0.3704 µM | 1.06
[7], 1.111 µM | 0.997
[7], 3.333 µM | 1
[7], 10 µM | 0.913
[8], 0.00017 µM | 1.12
[8], 0.00051 µM | 1.1
[8], 0.00152 µM | 1.12
[8], 0.00457 µM | 1.13
[8], 0.01372 µM | 1.13
[8], 0.04115 µM | 1.11
[8], 0.1235 µM | 1.12
[8], 0.3704 µM | 1.15
[8], 1.111 µM | 1.14
[8], 3.333 µM | 1.15
[8], 10 µM | 1.17
[9], 0.00017 µM | 1.05
[9], 0.00051 µM | 1.01
[9], 0.00152 µM | 1.01
[9], 0.00457 µM | 0.978
[9], 0.01372 µM | 0.955
[9], 0.04115 µM | 0.962
[9], 0.1235 µM | 0.903
[9], 0.3704 µM | 0.902
[9], 1.111 µM | 0.861
[9], 3.333 µM | 0.767
[9], 10 µM | 0.683
[10], 0.00017 µM | 1.02
[10], 0.00051 µM | 1.05
[10], 0.00152 µM | 1.06
[10], 0.00457 µM | 1.07
[10], 0.01372 µM | 1.05
[10], 0.04115 µM | 1.05
[10], 0.1235 µM | 1.06
[10], 0.3704 µM | 1.05
[10], 1.111 µM | 1.09
[10], 3.333 µM | 1.07
[10], 10 µM | 1.12
[11], 0.00017 µM | 0.96
[11], 0.00051 µM | 0.947
[11], 0.00152 µM | 0.954
[11], 0.00457 µM | 0.936
[11], 0.01372 µM | 0.911
[11], 0.04115 µM | 0.934
[11], 0.1235 µM | 0.923
[11], 0.3704 µM | 0.883
[11], 1.111 µM | 0.892
[11], 3.333 µM | 0.872
[11], 10 µM | 0.69
[12], 0.00017 µM | 1.05
[12], 0.00051 µM | 1.03
[12], 0.00152 µM | 1.02
[12], 0.00457 µM | 1.07
[12], 0.01372 µM | 1.04
[12], 0.04115 µM | 1.06
[12], 0.1235 µM | 1.03
[12], 0.3704 µM | 1.03
[12], 1.111 µM | 0.978
[12], 3.333 µM | 1.02
[12], 10 µM | 0.915
